Laboratory results taken from patent US20220000919A1, “PLACENTAL DERIVED NATURAL KILLER CELLS FOR TREATMENT OF CORONAVIRUS INFECTIONS” (Celularity Inc., priority 2020, published 2022).

How the values were obtained:
CD34+ cells = assay: NK culture of CD34+ cells with CRL compounds: cell expansion and NK differentiation; format: cell-based, human; conditions: for supported NK (PNK-007) expansion and differentiation: compound at 10 μM during the first 14 days of culture; for CD56+/CD11a+ subpopulation compared to SRI / expansion, differentiation and cytotoxicity profiles compared to SRI: PNK-007 culture, 10 μM; for cell expansion compared to SRI positive control at Day 35: compound and SRI at 10 μM; for CD34 cell expansion at Day 14 of the culture: compound at 10 μM
Protocol: Stage 1 medium: 90% Stem Cell Growth Medium (SCGM) (CellGro®), 10% Human Serum-AB, supplemented with 25 ng/mL or 250 ng/mL recombinant human thrombopoietin (TPO), 25 ng/mL recombinant human Flt3L, 27 ng/mL recombinant human stem cell factor (SCF), 25 ng/mL recombinant human IL-7, 0.05 ng/mL or 0.025 ng/mL recombinant human IL-6, 0.25 ng/mL or 0.125 ng/mL recombinant human granulocyte colony-stimulating factor (G-CSF), 0.01 ng/mL or 0.025 ng/mL recombinant human granulocyte-macrophage colony-stimulating factor (GM-CSF), 0.10% gentamicin, and 1 to 10 μm StemRegenin-1 (SR-1) or other stem cell mobilizing agent.
Stage 2 medium: 90% SCGM, 10% Human Serum-AB, supplemented with 25 ng/mL recombinant human Flt3L, 27 ng/mL recombinant human SCF, 25 ng/mL recombinant human IL-7, 20 ng/mL recombinant human IL-15, 0.05 ng/mL or 0.025 ng/mL recombinant human IL-6, 0.25 ng/mL or 0.125 ng/mL recombinant human granulocyte colony-stimulating factor (G-CSF), 0.01 ng/mL or 0.025 ng/mL recombinant human granulocyte-macrophage colony-stimulating factor (GM-CSF), 0.10% gentamicin, and 1 to 10 μm SRI or other stem cell mobilizing agent.
Stage 3 medium: 90% STEMMACS™, 10% Human Serum-AB, 0.025 mM 2-mercaptoethanol (55 mM), supplemented with 22 ng/mL recombinant human SCF, 1000 U/mL recombinant human IL-2, 20 ng/mL recombinant human IL-7, 20 ng/mL recombinant human IL-15, 0.05 ng/mL or 0.025 ng/mL recombinant human IL-6, 0.25 ng/mL or 0.125 ng/mL recombinant human granulocyte colony-stimulating factor (G-CSF), 0.01 ng/mL or 0.025 ng/mL recombinant human granulocyte-macrophage colony-stimulating factor (GM-CSF), and 0.10% gentamicin.
Cells are seeded at Day 0 at 3×10^4 cells/mL in Stage 1 media, and cells are tested for purity by a CD34+ and CD45+ count and viability by 7AAD staining. At Day 5 cells are counted and seeded to a concentration of 1×10^5 cells/mL with Stage 1 medium. At Day 7 cells are counted and seeded to a concentration of 1×10^5 cells/mL with Stage 1 medium.
At Day 10, cells are counted and seeded to a concentration of 1×10^5 cells/mL in Stage 2 medium. At Day 12, cells are counted and seeded to a concentration of 3×10^5 cells/mL in Stage 2 medium. At Day 14, cells are counted and seeded in Stage 3 medium. Cells are maintained in Stage 3 media until day 35.
UCB CD34+ cells were cultivated in presence of cytokines including thrombopoietin, SCF, Flt3 ligand, IL-7, IL-15 and IL-2 for 35 days to produce three-stage NK cells, as described in Example 1. Multi-color flow cytometry was used to determine the phenotypic characteristics of three-stage NK cells.
(§1) For biological testing, the compounds were provided to culture to evaluate their effects on NK cell expansion and differentiation. Specifically, donors of CD34+ cells (StemCell Technology) were thawed and expanded in vitro following NK culture protocol. During the first 14 days of the culture, each CRL compounds was dissolved in DMSO and added to the culture at 10 μM concentration. SRI (at 10 μM) served as a positive control compound, while DMSO alone without any compound served as a negative control. At the end of the culture on Day 35, cell expansion, natural killer (NK) cell differentiation and cytotoxicity of the cells against K562 tumor cell line were characterized. Due to the large number of the compounds, the testing was performed in two experiments, CRL1-11 and CRL 12-22. The same donors were used for each experiment. Positive and negative controls were also included in both experiments.

K562 tumor cells = assay: Cytotoxicity assay of compound cultured cells against K562 tumor cells; format: cell-based; conditions: K562, 10:1 effector to target ratio
Protocol: as §1
Cytotoxicity assay was run using compound cultured cells against K562 tumor cells at 10:1 effector to target ratio (FIG. 5) to evaluate cell functions.

Structure (SMILES)	supported NK (PNK-007) expansion and differentiation (CD34+ cells)	CD56+/CD11a+ subpopulation compared to SRI (CD34+ cells)	cell expansion compared to SRI positive control at Day 35 (CD34+ cells)	killing activities of cultured cells compared to those cultured with SRI (K562 tumor cells)	expansion, differentiation and cytotoxicity profiles compared to SRI (CD34+ cells)	CD34 cell expansion at Day 14 of the culture (CD34+ cells)
CCC(C)Nc1cc(-c2cncc(C#N)c2)nc(NCCc2c[nH]c3ccccc23)n1 (centres unmarked) [CRL7, 5-(2-((2-(1H-indol-3-yl)ethyl)amino)-6-(sec-butylamino)pyrimidin-4-yl)nicotinonitrile]	all the compounds except CRL7 and CRL13 supported PNK-007 expansion and differentiation					
CCC(C)Nc1nc(NCCc2c[nH]c3ccccc23)c2ccccc2n1 (centres unmarked) [CRL13, N^4-(2-(1H-indol-3-yl)ethyl)-N^2-(sec-butyl)quinazoline-1,4-diamine]	all the compounds except CRL7 and CRL13 supported PNK-007 expansion and differentiation					
CC(C)c1csc2c(NCCc3c[nH]c4ccccc34)nc(-c3cncc(C#N)c3)nc12 [CRL17, 5-(4-((2-(1H-indol-3-yl)ethyl)amino)-7-isopropylthieno[3,2-d]pyrimidin-2-yl)nicotinonitrile]		increased CD56+/CD11a+ subpopulation	slightly less expansion compared to SRI	increased killing activities of the cells		
CC(C)c1csc2c(NCCc3c[nH]c4ccccc34)nc(-c3cncc(F)c3)nc12 [CRL18, N-(2-(1H-indol-3-yl)ethyl)-2-(5-fluoropyridin-3-yl)-7-isopropylthieno[3,2-d]pyrimidin-4-amine]		increased CD56+/CD11a+ subpopulation	slightly less expansion compared to SRI	increased killing activities of the cells		
Fc1cncc(-c2nc(NCCc3c[nH]c4ccccc34)c3occc3n2)c1 [CRL19, N-(2-(1H-indol-3-yl)ethyl)-2-(5-fluoropyridin-3-yl)furo[3,2-d]pyrimidin-4-amine]					very similar expansion, differentiation and cytotoxicity profiles as SRI	highest CD34 cell expansion
Cc1cncc(-c2nc(NCCc3c[nH]c4ccccc34)c3occc3n2)c1 [CRL20, N-(2-(1H-indol-3-yl)ethyl)-2-(5-methylpyridin-3-yl)furo[3,2d]pyrimidin-4-amine]					very similar expansion, differentiation and cytotoxicity profiles as SRI	highest CD34 cell expansion
Cc1cncc(-c2nc(NCCc3c[nH]c4ccccc34)c3scc(C(C)C)c3n2)c1 [CRL21, N-(2-(1H-indol-3-yl)ethyl)-7-isopropyl-2-(5-methylpyridin-3-yl)thieno[3,2-d]pyrimidin-4-amine]		increased CD56+/CD11a+ subpopulation	slightly less expansion compared to SRI	increased killing activities of the cells		
N#Cc1cncc(-c2nc(NCCc3c[nH]c4ccccc34)c3occc3n2)c1 [CRL22, 5-(4-((2-(1H-indol-3-yl)ethyl)amino)furo[3,2-d]pyrimidin-2-yl)nicotinonitrile]					very similar expansion, differentiation and cytotoxicity profiles as SRI	highest CD34 cell expansion
